# Biological target: T1, recombinant nucleolin (Homo sapiens, UniProt P19338)
# T1 construct: without the N-terminal acidic stretches domain
# Assay: Nucleolin/nucleic acid ligand interaction, gel retardation assay
# Assay type: binding
# Design: key: A “+” represents the weakest nucleolin affinity; a “++++” represents the strongest nucleolin affinity
# Details: relative affinity of each nucleic acid ligand for nucleolin; nucleolin ~250 nM, 32P-labeled ligand 10 or 250 nM, 30 minutes at room temperature
# Protocol: The following assays can be used to assess the effects of compounds on interactions between nucleolin and nucleic acid ligands capable of forming quadruplex (QP) and hairpin (HP) secondary structures. Nucleic acid ligands tested were a cMyc QP DNA having nucleotide sequence 5′-[…]-3′ and a HP pre-rRNA region to which nucleolin binds, having the sequence 5′-[…]-3′. In the assays, recombinant nucleolin (˜250 nM), which has been fused to maltose binding protein, and has the sequence under accession number NM_005381 without the N-terminal acidic stretches domain, is incubated with each of the two ^32P-labeled nucleic acid ligands (10 or 250 nM). Nucleolin and the nucleic acid ligand are incubated in the presence or absence of a test compound 7 in an incubation buffer (12.5 mM Tris, pH 7.6, 60 mM KCl, 1 mM MgCl2, 0.1 mM EDTA, 1 mM DTT, 5% glycerol, 0.1 mg/ml BSA) for 30 minutes at room temperature.
# The resulting complexes are separated on a 6% DNA retardation gel using 0.5× TBE with 20 mM KCl as a running buffer. The assay also can be conducted using nucleic acid ligands derived from human ribosomal DNA, whereby one can identify a compound that selectively modulates formation of a nucleolin/nucleic acid complex that depends on the conformation of the nucleic acid. Sequences of suitable nucleic acids are shown in the preceding example. […] A “+” represents the weakest nucleolin affinity and a “++++” represents the strongest nucleolin affinity. […] Using nucleic acids such as these having known conformational properties, one can identify a compound such as the compounds described herein that selectively interferes with binding of nucleolin to a particular quadruplex structure.
# T1 sequence (P19338 284-710 limits assumed): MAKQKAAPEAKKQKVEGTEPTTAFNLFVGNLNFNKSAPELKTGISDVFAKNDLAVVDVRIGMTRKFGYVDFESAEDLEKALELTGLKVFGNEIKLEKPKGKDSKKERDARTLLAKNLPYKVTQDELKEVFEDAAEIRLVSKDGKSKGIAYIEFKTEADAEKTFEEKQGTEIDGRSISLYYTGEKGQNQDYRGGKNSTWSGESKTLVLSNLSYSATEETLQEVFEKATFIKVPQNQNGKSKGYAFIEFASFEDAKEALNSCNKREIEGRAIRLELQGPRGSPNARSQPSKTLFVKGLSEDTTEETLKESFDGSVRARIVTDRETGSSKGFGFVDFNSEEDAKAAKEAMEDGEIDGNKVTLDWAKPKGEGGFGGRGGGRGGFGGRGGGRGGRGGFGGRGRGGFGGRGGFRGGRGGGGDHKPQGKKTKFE
molecule,measurement,value
11028NT: human rDNA-derived DNA oligonucleotide GGGGCGCGGCGGGGGGAGAAGGGTCGGGGCGGCAGGGG (chemistry not given here) [Compound 11028NT],Affinity for Nucleolin,+
8511NT: human rDNA-derived DNA oligonucleotide GGGGGTGGGCGGGCGGGGCCGGGGGTGGG (chemistry not given here) [Compound 8511NT],Affinity for Nucleolin,++++
6183NT: human rDNA-derived DNA oligonucleotide GGGTCGGGGGCGGTGGTGGGCCCGCGGGGG (chemistry not given here) [Compound 6183NT],Affinity for Nucleolin,+
7733T: human rDNA-derived DNA oligonucleotide GGGAGGGGCACGGGCCGGGGGCGGGACGGG (chemistry not given here) [Compound 7733T],Affinity for Nucleolin,+
8749NT: human rDNA-derived DNA oligonucleotide GGGAGGGCGCGCGGGTCGGGG (chemistry not given here) [Compound 8749NT],Affinity for Nucleolin,+
"8762NT: human rDNA-derived DNA oligonucleotide CGGAGGGCGCGCGGGTCGGGGCGGCGGCGGCGGCGGCGGTGGCGGCGGCGGCGGGGGCGGCGGG (nucleic acid, chemistry not given here) DNA: CGGAGGGCGCGCGGGTCGGGGCGGCGGCGGCGGCGGCGGTGGCGGCGGCGGCGGGGGCGGCGGG",Affinity for Nucleolin,++++
